Test results: patent publication US8263601B2, “Deuterium substituted xanthine derivatives” (CoNCERT Pharmaceuticals, Inc., priority 2009, dated 2012)
Where two headings read alike, the source gives them in different places. One block for each molecule: values may come before it.

Legend:
[1] = Pharmacokinetic study of 435(S) and other representative compounds in chimps after oral dosing (Example 40); type: in vivo; conditions: species named in label measured in plasma
Method: 435(S) and representative compounds 121(S), 137(S), 421(S) and 437(S) were separately dissolved in warm (65° C.) water at a concentration [[of 10 mg/mL]]. The same protocol described for Example 39 was then followed for each representative compound.

in vivo = assay: in vivo; set-up: species or system male beagle dogs; conditions: dog, po, 2.5 mg/kg
Method: Metabolism of the title compounds were studied following oral administration to male beagle dogs. Blood samples were removed from dosed dogs at various time points and plasma isolated therefrom. The plasma samples were used for the determination of plasma drug levels by LC-MS/MS (liquid chromatography with tandem mass spectrometry) for estimating pharmacokinetic parameters.
Compound 409 and pentoxifylline were dissolved separately in saline to a concentration of 4 mg/mL. A 1:1 (v/v) mixture of the two solutions was prepared to yield a solution having a final concentration of 2 mg/mL of both Compound 409 and pentoxifylline.
Two male beagle dogs were fasted overnight and then orally dosed via gavage with 2.5 mg/kg of Compound 409 and pentoxifylline using the mixture described above. Blood samples (1.5-2 mL) were collected via the femoral vein at 0 min (pre-dose), 15 min, 30 min, 45 min, 1 hr, 1.5 hr, 2 hr, 3 hr, 4 hr, 6 hr, 8 hr, 10 hr, 12 hr, 16 hr and 24 hr post-dose. Blood was stored on ice prior to centrifugation to obtain plasma samples. Centrifugation took place within 1 hour of blood collection to harvest plasma (maximum volume). The plasma was decanted immediately and frozen/stored at −70° C. until analysis.

[2] = Pharmacokinetic study in rats of (S)-M1 and Compound 435(S) after oral dosing (Example 37); type: in vivo, male Sprague-Dawley rats; conditions: oral gavage single 5 mg/kg dose, 1:1 mixture of (S)-M1 and 435(S), species named in label measured in plasma, −1D and −2D species included
Method: (§1) (S)-M1 and Compound 435(S) (a deuterated form of (S)-M1) were separately dissolved in saline at a concentration of 10 mg/mL. A 1:1 mixture of the two compounds was then prepared containing a final concentration of 5 mg/mL of each compound, which was used for intravenous administration. For oral administration the mixture was further diluted in saline to a final concentration of 1 mg/mL for each compound.
(§2) Three male Sprague-Dawley rats were used in each of the oral and intravenous studies. Animals were fasted overnight prior to administration of compounds. Intravenous administration was achieved by bolus injection of a single 5 mg/kg dose of the 1:1 combination into the cannulated jugular vein of the rats. Cannulation was achieved the day prior to dosing on rats that had been placed under anesthesia using ketamine (IM 30 mg/kg). Oral administration was achieved by oral gavage of a single 5 mg/kg dose. Blood samples (250 μL) were collected from the dosed rats at various times post-dosing (2 min, 5 min, 10 min, 20 min, 30 min, 1 hr, 2 hr, 3 hr, 4 hr, 5 hr, 6 hr) by retro-orbital sampling of the rats temporarily anesthetized with isoflurane. Blood samples were placed in tubes containing K2-EDTA and stored on ice until centrifuged. Within 30 minutes of collection, plasma was isolated by centrifugation. A 100-μL aliquot was removed, mixed with 200 μL of acetonitrile and stored at −20° C. until further analysis by LC-MS/MS using an Applied Bio-systems API 4000 mass spectrometer.
(§3) Samples were analyzed for the presence of the administered compound, the corresponding ketone (pentoxifylline and Compound 409) and the corresponding M5 metabolite. Samples (10 μL) were injected into a Zorbax SB-C8 (Rapid Resolution) column (2.1×30 mm, 3.5 μm). The initial mobile phase condition was 100% A (10 mM ammonium acetate in water) and 0% B (methanol) with a flow rate at 0.5 mL/min. Mobile phase B was allowed to reach 55% in 3 minutes and from 55% to 90% in 1 minute before ramping back to 0% in another minute. The overall run time was 5 minutes. For pentoxifylline and its M1 and M5 metabolites, the precursor/product ion pairs were set at m/z 281/193 (M1), m/z 279/181 (pentoxifylline), and m/z 267/221 (M5).
(§4) For Compound 435(S) and Compound 409 more than one ion pair was set up for to detect species that arose from loss of deuterium. […] This loss of deuterium appears to occur both in vivo and ex vivo by an unknown mechanism. The addition of acetonitrile to serum samples was used to stop any additional ex vivo deuterium loss prior to analysis. Typically, no more than 2 deuterium atoms were replaced by hydrogen. For Compound 435(S), there is a deuterium at the methinyl position which was lost upon oxidation to the keto-compound 409. Reduction of 409 to an M1 metabolite introduced a proton at the methinyl position. When serum from animals dosed with 435(S) were analyzed to quantitate administered compound and metabolites, compound species were included with one and two less side chain deuteriums in the total amounts (referred to hereinafter as the “−1D” and the “−2D” species). Thus, for Compound 435(S) and Compound 409 separate ion pairs were set up to detect the compound and its corresponding −1D and −2D species. For Compound 435(S) three ion pairs were detected: m/z 291/197, 290/197, and […]. For Compound 409 ion pairs of m/z 288/186, 287/186 and 286/186 were monitored. Inclusion of −1D and −2D species in the measurements of Compound 409 and Compound 435(S) more accurately quantitates the total active species and is reasonable based on what is known about the metabolism and activities of pentoxifylline and its M-1 metabolites. Increased plasma exposure to Compound 409 or any M-1 metabolites of 409 would be desirable. This includes the −1D and −2D species.
(§5) [drawing 78] which has no deuterium on its acid side chain, only one ion pair was used at m/z 271/225. The internal standard for the analysis was indiplon.

[3] = Pharmacokinetic study of pentoxifylline and Compound 435(S) in chimps after oral dosing (Example 39); type: in vivo; conditions: oral gavage 65 mg each of pentoxifylline and 435(S) in water, species named in label measured in plasma
Method: Pentoxifylline and Compound 435(S) were tested according to a protocol similar to the Oral Dosing protocol followed in Example 38, except that (a) the compounds were separately dissolved in water rather than saline; (b) the mixture of the two compounds was not sterile filtered; and (c) oral administration was achieved by oral gavage of a single 65 mg dose of each compound (13 mL total dosing solution).

[4] = Pharmacokinetic study in rats of (S)-M1 and Compound 435(S) after intravenous dosing (Example 37); type: in vivo, male Sprague-Dawley rats; conditions: intravenous bolus single 5 mg/kg dose of 1:1 combination of (S)-M1 and 435(S), species named in label measured in plasma
Method: as §1, §2, §3, §4, §5

[5] = Pharmacokinetic study of pentoxifylline and Compound 435(S) in chimps after oral dosing (Example 38); type: in vivo; conditions: in vivo, po, 75 mg
Method: Pentoxifylline and Compound 435(S) were separately dissolved in warm (65° C.) saline at a concentration at 10 mg/mL. A 1:1 mixture of the two compounds was then prepared containing a final concentration of 5 mg/mL of each compound and the mixture was then sterile filtered through a 0.2-μm filter.
Two chimps (one male and one female) were used in each of the oral and intravenous studies. Animals were fasted overnight prior to administration of compounds. All animals were sedated with ketamine (approximately 10 mg/kg) and/or telazol (approximately 5 mg/kg) prior to dosing. Intravenous administration was achieved by IV infusion of 75 mg of each compound (15 mL total dosing solution) over 10 minutes. Oral administration was achieved by oral gavage of a single 75 mg dose of each compound (15 mL total dosing solution). Blood samples (6 mL) were collected from the dosed chimps at various times prior to and after dosing. For intravenous administrations blood samples were collected at 0 min (preinfusion), 5 min, 9.5 min (immediately before the end of the infusion), then 6, 15, 30 and 45 min, and 1, 2, 4, 6, 8, 10 and 12 hr after the infusion is stopped. For oral administrations, blood samples were collected at 0 min (predose), 15 and 30 min, and 1, 1.5, 2, 4, 6, 8, 10 and 12 hr postdose.
Blood samples were placed in tubes containing sodium heparin, mixed and stored on ice until centrifuged. Within 30 minutes of collection, plasma was isolated by centrifuging the blood samples and removing an aliquot (200 μL) of the resulting plasma. Each 200-μL aliquot of plasma was mixed with 400 μL acetonitrile and stored at −70° C. until further analysis by LC-MS/MS using an Applied Bio-systems API 4000 mass spectrometer.
The analysis of all samples by LC-MS/MS was performed as described above for the rat plasma samples in Example 37.

[6] = female, plasma, po, 65 mg, Table 17 iii): female chimp, 435(S) and 421(S), read-out: AUC0-12 Female
[7] = female, plasma, po, 65 mg, Table 17 iv): female chimp, 435(S) and 437(S), read-out: AUC0-12 Female
[8] = male, plasma, po, 65 mg, Table 17 iii): male chimp, 435(S) and 421(S), read-out: AUC0-12 Male

AUC(0-t) [1, 6]: 350 ng·h/mL | AUC(0-t) [1, 7]: 416 ng·h/mL | AUC(0-t) [1, 8]: 447 ng·h/mL
Molecule: [2H]c1nc2c(c(=O)n(CCCC(=O)O)c(=O)n2C)n1C [Deuterated M5 (M5b)]

AUC(0-t) ([1]; female, plasma, po, 65 mg, Table 17 i): female chimp, 435(S) and 121(S), read-out: AUC0-12 Female): 105 ng·h/mL | AUC(0-t) ([1]; male, plasma, po, 65 mg, Table 17 i): male chimp, 435(S) and 121(S), read-out: AUC0-12 Male): 304 ng·h/mL
Molecule: [2H]C([2H])([2H])[C@H](O)C([2H])([2H])CCCn1c(=O)c2c(ncn2C)n(C)c1=O [Compound 121(S), S-1-(4,4,6,6,6-d5-5-Hydroxyhexyl)-3,7-dimethyl-1H-purine-2,6(3H,7H)-dione]

Molecule: pentoxifylline [reference compound]
Ave. AUC (in vivo): 448 ng·h/mL | Ave. Cmax (in vivo): 784 ng/mL

AUC(0-t) [1, 6]: 634 ng·h/mL | AUC(0-t) [1, 8]: 743 ng·h/mL
Molecule: [2H]c1nc2c(c(=O)n(CCCC([2H])([2H])[C@@H](O)C([2H])([2H])[2H])c(=O)n2C)n1C [Compound 421(S), (S)-1-(4,4,6,6,6-d5-5-hydroxyhexyl)-3,7-dimethyl-8-d-1H-purine-2,6(3H,7H)-dione]

AUC(0-t) [1, 7]: 1180 ng·h/mL | AUC(0-t) ([1]; male, plasma, po, 65 mg, Table 17 iv): male chimp, 435(S) and 437(S), read-out: AUC0-12 Male): 757 ng·h/mL
Molecule: [2H]c1nc2c(c(=O)n(CCCC([2H])([2H])[C@@]([2H])(O)C([2H])([2H])[2H])c(=O)n2C)n1C [Compound 437(S), (S)-8-d1-1-(4,4,5,6,6,6-d6-5-Hydroxyhexyl)-3,7-dimethyl-1H-purine-2,6(3H,7H)-dione]

AUC0-∞ [2]: 2985 ± 601 ng·h/mL | AUC0-∞ [4]: 1795 ± 521 ng·h/mL | AUC0-12 Female ([1]; Table 17 i): female chimp, 435(S) and 121(S)): 653 ng·h/mL | AUC0-12 Male ([1]; Table 17 i): male chimp, 435(S) and 121(S)): 630 ng·h/mL | AUC0-12 Female ([1]; Table 17 ii): female chimp, 435(S) and 137(S)): 635 ng·h/mL | AUC0-12 Male ([1]; Table 17 ii): male chimp, 435(S) and 137(S)): 539 ng·h/mL
Molecule: Cn1cnc2c1c(=O)n(CCCC(=O)O)c(=O)n2C [Compound M5, reference compound]
AUC0-12 Female ([3]; female chimp): 811 ng·h/mL | AUC0-12 Male ([3]; male chimp): 817 ng·h/mL | AUC0-∞ Female [5]: 1868 ng·h/mL | AUC0-∞ Male [5]: 1456 ng·h/mL

AUC(0-t) ([1]; female, plasma, po, 65 mg, Table 17 ii): female chimp, 435(S) and 137(S), read-out: AUC0-12 Female): 163 ng·h/mL | AUC(0-t) ([1]; male, plasma, po, 65 mg, Table 17 ii): male chimp, 435(S) and 137(S), read-out: AUC0-12 Male): 63 ng·h/mL
Molecule: [2H]C([2H])([2H])[C@]([2H])(O)C([2H])([2H])CCCn1c(=O)c2c(ncn2C)n(C)c1=O [Compound 137(S), (S)-1-(4,4,5,6,6,6-d6-5-Hydroxyhexyl)-3,7-dimethyl-1H-purine-2,6(3H,7H)-dione]
